Test results: patent publication US5843902A, “Methods for treating prostate cancer with LHRH antagonists” (Praecis Pharmaceuticals Incorporated, priority 1996, dated 1998)
Square brackets hold non-standard residues; d marks the D form. Peptide text beside a SMILES is read from it. dPhe(4-Cl) = N[C@H](Cc1ccc(Cl)cc1)C(=O)O; d2Nal = N[C@H](Cc1ccc2ccccc2c1)C(=O)O; Lys(iPr) = CC(C)NCCCC[C@H](N)C(=O)O; NMeY = CN[C@@H](Cc1ccc(O)cc1)C(=O)O; d3Pal = N[C@H](Cc1cccnc1)C(=O)O

Tests used:
adult male rats = assay: Plasma testosterone in adult male rats given PPI-149 by osmotic pump, then leuprolide; assay type: in vivo, rat; conditions: for prevention of leuprolide-induced testosterone surge / suppression of plasma testosterone levels: rat
Method: In a first series of experiments, adult male rats were first administered an LHRH antagonist having the structure:
(referred to herein as PPI-149). PPI-149 was administered via a subcutaneous continuous osmotic minipump (e.g., the Alzet pump, commercially available from Alza, Palo Alto, Calif.) at a dose of 15 μg/kg/day or 50 μg/kg/day. PPI-149 administration continued for a total of 15-28 days according to several different protocols. A second pump releasing leuprolide (trade name: Lupron®) at 1.8 μg/kg/day was implanted such that there was an overlap of 0, 1 or 7 days with the previously-implanted pump releasing PPI-149.
In the experiment shown in FIG. 1, PPI-149 (at 15 μg/kg/day or 50 μg/kg/day) was administered by osmotic pump for 28 days and then this pump was removed and a second pump administering leuprolide (at 1.8 μg/kg/day) was implanted such that there was no overlap between the antagonist and agonist treatment. Plasma testosterone levels (in ng/ml) were measured during the prolonged administration of PPI-149 alone and following replacement of the PPI-149 pump with the leuprolide pump.
In the experiment shown in FIG. 2, PPI-149 (at 50 μg/kg/day) was administered by osmotic pump for 15 days and then a second pump administering leuprolide (at 1.8 μg/kg/day) was implanted such that there was one day of overlap between the antagonist and agonist treatment (i.e., the first PPI-149-releasing pump was removed one day after implantation of the second leuprolide-releasing pump). Plasma testosterone levels were measured during the prolonged administration of PPI-149 alone and following removal of the PPI-149 pump when leuprolide alone was administered.
(§1) In the experiment shown in FIG. 3, PPI-149 (at 15 μg/kg/day or 50 μg/kg/day) was administered by osmotic pump for 28 days and then a second pump administering leuprolide (at 1.8 μg/kg/day) was implanted such that there was one day of overlap between the antagonist and agonist treatment (i.e., the first PPI-149-releasing pump was removed one day after implantation of the second leuprolide-releasing pump). Plasma testosterone levels were measured during the prolonged administration of PPI-149 alone and following removal of the PPI-149 pump when leuprolide alone was administered.
as §1, with “4,” for “3,”, “were seven days” for “was one day”, “(i e.,” for “(i.e.,”, “seven days” for “one day”

male cynomolgus monkeys = assay: Plasma testosterone in male cynomolgus monkeys given PPI-149 by osmotic pump, then depot leuprolide; assay type: in vivo; conditions: cynomolgus monkey
Method: In a second series of experiments, male cynomolgus monkeys were administered the LHRH antagonist PPI-149 via a subcutaneous continuous osmotic minipump (Alzet pump; Alza, Palo Alto, Calif.) at a dose of 0, 30, 100 or 300 μg/kg/day for a period of 28 days. On day 28, pumps were removed and monkeys were administered a single intramuscular dose of the depot, sustained-release (one-month) formulation of Luprong, equivalent to 0.16 mg/kg. This dose of leuprolide is 1.6 times that used in the treatment of prostate cancer in humans (0.1 mg/kg) and 3.2 times that used in the treatment of endometriosis (0.05 mg/kg).

[1] = PPI-149 50 μg/kg/day osmotic pump 15 days, one day overlap with leuprolide 1.8 μg/kg/day (FIG. 2)
[2] = PPI-149 50 μg/kg/day osmotic pump 28 days, one day overlap with leuprolide 1.8 μg/kg/day (FIG. 3)
[3] = PPI-149 50 μg/kg/day osmotic pump 28 days, seven days overlap with leuprolide 1.8 μg/kg/day (FIG. 4)
[4] = PPI-149 50 μg/kg/day s.c. osmotic pump 28 days, no overlap with leuprolide 1.8 μg/kg/day (FIG. 1)

CC(=O)N[C@H](Cc1ccc2ccccc2c1)C(=O)N[C@H](Cc1ccc(Cl)cc1)C(=O)N[C@H](Cc1cccnc1)C(=O)N[C@@H](CO)C(=O)N(C)[C@@H](Cc1ccc(O)cc1)C(=O)N[C@H](CC(N)=O)C(=O)N[C@@H](CC(C)C)C(=O)N[C@@H](CCCCNC(C)C)C(=O)N1CCC[C@H]1C(=O)N[C@H](C)C(N)=O [PPI-149, Ac-D-Nal^1,4-Cl-D-Phe^2, D-Pal^3, N-Me-Tyr^5, D-Asn^6, Lys(iPr)^8, D-Ala^10 -LHRH] (Ac-[d2Nal][dPhe(4-Cl)][d3Pal]S[NMeY][dN]L[Lys(iPr)]P[dA]-NH2)
prevention of testosterone surge induced by LHRH agonist (summary of FIGS. 1-4) (adult male rats; adult male rats, PPI-149 50 μg/kg/day, 0, 1 or 7 days): can prevent the testosterone surge induced by LHRH agonist administration | prevention of leuprolide-induced testosterone surge (adult male rats; [1]): prevented the leuprolide-induced testosterone surge | suppression of plasma testosterone levels (adult male rats; [1]): suppressed plasma testosterone levels to castrate levels | prevention of leuprolide-induced testosterone surge (adult male rats; [2]): prevented the leuprolide-induced testosterone surge | suppression of plasma testosterone levels (adult male rats; [2]): suppressed plasma testosterone levels to castrate levels | prevention of leuprolide-induced testosterone surge (adult male rats; [3]): prevented the leuprolide-induced testosterone surge | suppression of plasma testosterone levels (adult male rats; [3]): suppressed plasma testosterone levels to castrate levels | prevention of leuprolide-induced testosterone surge (adult male rats; [4]): prevented the leuprolide-induced testosterone surge | suppression of plasma testosterone levels (adult male rats; [4]): suppressed plasma testosterone levels to castrate levels | blockade of testosterone surge from depot Lupron (male cynomolgus monkeys; PPI-149 100 μg/kg/day 28 days, pump removed, single i.m. one-month depot leuprolide equivalent to 0.16 mg/kg on day 28 (FIG. 5)): complete blockade of the testosterone surge | medical castration (plasma testosterone) (male cynomolgus monkeys; PPI-149 100 μg/kg/day s.c. osmotic pump 28 days (FIG. 5)): rapid, complete medical castration within the first two days of treatment
